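96-well plates; 48 h exposure; 5 concentrations. Endpoints by linear interpolation between flanking doses. Not reached: highest tested concentration assigned. GI50 marks 50% less growth. Definition used: TGI = concentration required for complete inhibition of growth.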
Key:
Experiment in all cases: inhibition of tumour cell growth, NCI panel, 48 h
NCI-H23 lung = test system: NCI-H23 lung
OVCAR-4 ovarian = test system: OVCAR-4 ovarian
NCI-H522 lung = test system: NCI-H522 lung
A549 NSCLC = test system: A549 NSCLC
SN12C renal = test system: SN12C renal
SW-620 colon = test system: SW-620 colon
CCRF-CEM leukemia = test system: CCRF-CEM leukemia
RPMI-8226 leukemia = test system: RPMI-8226 leukemia
HL-60(TB) leukemia = test system: HL-60(TB) leukemia
U251 CNS = test system: U251 CNS

O=[N+]([O-])c1ccc(Sc2ncnc3nc[nH]c23)c2nonc12
GI50 (NCI-H23 lung): 10.3 µM | TGI (NCI-H23 lung): 23.6 µM | GI50 (OVCAR-4 ovarian): 0.811 µM | TGI (OVCAR-4 ovarian): 16.9 µM | GI50 (NCI-H522 lung): 1.39 µM | TGI (NCI-H522 lung): 2.71 µM | GI50 (A549 NSCLC): 29.6 µM | TGI (A549 NSCLC): > 100 µM | GI50 (SN12C renal): 18.1 µM | TGI (SN12C renal): 53.1 µM | GI50 (SW-620 colon): 1.63 µM | TGI (SW-620 colon): 3.44 µM | GI50 (CCRF-CEM leukemia): 1.78 µM | TGI (CCRF-CEM leukemia): 5.14 µM | GI50 (RPMI-8226 leukemia): 2.92 µM | TGI (RPMI-8226 leukemia): 48 µM | GI50 (HL-60(TB) leukemia): 2.8 µM | TGI (HL-60(TB) leukemia): 6.03 µM | GI50 (U251 CNS): 14.8 µM | TGI (U251 CNS): 50.5 µM

CC1=NOC(=O)/C1=C/c1cccc2ccccc12
TGI (NCI-H23 lung): > 100 µM | TGI (OVCAR-4 ovarian): > 100 µM | TGI (NCI-H522 lung): > 100 µM | TGI (A549 NSCLC): > 100 µM | TGI (SN12C renal): > 100 µM | TGI (SW-620 colon): > 100 µM | TGI (CCRF-CEM leukemia): > 100 µM | TGI (RPMI-8226 leukemia): > 100 µM | TGI (HL-60(TB) leukemia): > 100 µM | TGI (U251 CNS): > 100 µM

N/N=C(\C(=O)Nc1ccc(Cl)cc1Cl)C(c1cnc2ccccc2n1)[N+](=O)[O-] (stereo not given)
TGI (NCI-H23 lung): > 100 µM | TGI (OVCAR-4 ovarian): > 100 µM | TGI (NCI-H522 lung): > 100 µM | TGI (A549 NSCLC): > 100 µM | TGI (SN12C renal): > 100 µM | TGI (SW-620 colon): > 100 µM | TGI (CCRF-CEM leukemia): > 100 µM | TGI (RPMI-8226 leukemia): > 100 µM | TGI (HL-60(TB) leukemia): > 100 µM | TGI (U251 CNS): > 100 µM

NS(=O)(=O)c1ccc(NC2=CC(=O)C(=O)c3ccccc32)cc1
TGI (NCI-H23 lung): > 100 µM | TGI (OVCAR-4 ovarian): > 100 µM | TGI (NCI-H522 lung): > 100 µM | TGI (A549 NSCLC): > 100 µM | TGI (SN12C renal): > 100 µM | TGI (SW-620 colon): > 100 µM | TGI (CCRF-CEM leukemia): > 100 µM | TGI (RPMI-8226 leukemia): > 100 µM | TGI (HL-60(TB) leukemia): > 100 µM | TGI (U251 CNS): > 100 µM

CCOC(=O)c1c(C)n2c(=O)cc(C)c3c(O)c(O)cc1c32
GI50 (NCI-H23 lung): 10.9 µM | TGI (NCI-H23 lung): 51.6 µM | GI50 (OVCAR-4 ovarian): 4.53 µM | TGI (OVCAR-4 ovarian): > 100 µM | GI50 (NCI-H522 lung): 3.4 µM | TGI (NCI-H522 lung): 16.7 µM | GI50 (A549 NSCLC): 5.56 µM | TGI (A549 NSCLC): 49.1 µM | GI50 (SN12C renal): 3.85 µM | TGI (SN12C renal): 24.6 µM | GI50 (SW-620 colon): 4.3 µM | TGI (SW-620 colon): > 100 µM | GI50 (CCRF-CEM leukemia): 0.746 µM | TGI (CCRF-CEM leukemia): 6.05 µM | GI50 (RPMI-8226 leukemia): 1.92 µM | TGI (RPMI-8226 leukemia): 15.1 µM | GI50 (HL-60(TB) leukemia): 2.92 µM | TGI (HL-60(TB) leukemia): 17.2 µM | GI50 (U251 CNS): 4.68 µM | TGI (U251 CNS): 30.5 µM

C[C@H](Nc1ncnc2nc[nH]c12)c1cc2ccc(F)cc2nc1-c1ccccn1
GI50 (NCI-H23 lung): > 100 µM | TGI (NCI-H23 lung): > 100 µM | GI50 (OVCAR-4 ovarian): > 100 µM | TGI (OVCAR-4 ovarian): > 100 µM | GI50 (NCI-H522 lung): > 54.1 µM | TGI (NCI-H522 lung): > 100 µM | GI50 (A549 NSCLC): > 100 µM | TGI (A549 NSCLC): > 100 µM | GI50 (SN12C renal): 57.8 µM | TGI (SN12C renal): > 100 µM | GI50 (SW-620 colon): > 100 µM | TGI (SW-620 colon): > 100 µM | GI50 (CCRF-CEM leukemia): > 70.2 µM | TGI (CCRF-CEM leukemia): > 100 µM | GI50 (RPMI-8226 leukemia): > 100 µM | TGI (RPMI-8226 leukemia): > 100 µM | GI50 (HL-60(TB) leukemia): 30.3 µM | TGI (HL-60(TB) leukemia): > 100 µM | GI50 (U251 CNS): > 100 µM | TGI (U251 CNS): > 100 µM

CCCCCCCCCCCCCC(=O)OCC1OC(n2cc(F)c(=O)[nH]c2=O)C(NC(=O)OCc2ccccc2)C(OC(=O)CCCCCCCCCCCCC)C1O (stereo not given)
TGI (NCI-H23 lung): > 100 µM | TGI (OVCAR-4 ovarian): > 100 µM | TGI (NCI-H522 lung): > 100 µM | TGI (A549 NSCLC): > 100 µM | TGI (SN12C renal): > 100 µM | TGI (SW-620 colon): > 100 µM | TGI (CCRF-CEM leukemia): > 100 µM | TGI (RPMI-8226 leukemia): > 100 µM | TGI (HL-60(TB) leukemia): > 100 µM | TGI (U251 CNS): > 100 µM

COc1ccc(C(=O)COC(=O)[C@H](C[Se][Se]C[C@H](NC(=O)c2ccc(Br)cc2F)C(=O)OCC(=O)c2ccc(OC)cc2)NC(=O)c2ccc(Br)cc2F)cc1
GI50 (NCI-H23 lung): 0.412 µM | TGI (NCI-H23 lung): 1.81 µM | GI50 (OVCAR-4 ovarian): 1.64 µM | TGI (OVCAR-4 ovarian): 3.1 µM | GI50 (NCI-H522 lung): 0.66 µM | TGI (NCI-H522 lung): 2.02 µM | GI50 (A549 NSCLC): 0.421 µM | TGI (A549 NSCLC): 3.79 µM | GI50 (SN12C renal): 1.04 µM | TGI (SN12C renal): 2.49 µM | GI50 (SW-620 colon): 1.44 µM | TGI (SW-620 colon): 3.89 µM | GI50 (CCRF-CEM leukemia): 2.5 µM | TGI (CCRF-CEM leukemia): 11.6 µM | GI50 (RPMI-8226 leukemia): 0.502 µM | TGI (RPMI-8226 leukemia): 5.69 µM | GI50 (HL-60(TB) leukemia): 2.72 µM | TGI (HL-60(TB) leukemia): 12.2 µM | GI50 (U251 CNS): 0.312 µM | TGI (U251 CNS): 1.07 µM

From PubChem BioAssay (NCI)
